From patent US20250017874A1, “PHARMACEUTICAL COMPOSITIONS FOR USE IN REDUCING HYPERPIGMENTATION” (Caliway Biopharmaceuticals Co., Ltd., priority 2023, published 2025) come the findings set out here.

For orientation: EC50 means the concentration that produces a half-maximal response.

The experiment has as its system B16-F10 cell line. The experiment in a line: In vitro whitening efficacy: melanin content (Example 7). In kind it is cell-based, mouse. The text has this:
Table 23 below lists the study design for evaluating EC50 values of IM01, which contains 4-[(E)-2-(3,5-dihydroxyphenyl)ethenyl]benzene-1,3-diol.
Table 25 below lists the study design for evaluating EC50 values of IM01, which contains 4-[(E)-2-(3,5-dihydroxyphenyl)ethenyl]benzene-1,3-diol.

Each structure is given as a SMILES string.

Consider `Oc1cc(O)cc(/C=C/c2ccc(O)cc2O)c1` [IM01, 4-[(E)-2-(3,5-dihydroxyphenyl)ethenyl]benzene-1,3-diol], for which the 50% effective concentration (EC50) (Mus musculus, B16-F10, α-MSH 24 hr + TA 24 hr, 4-256 μM, read-out: EC50 value (reduction of melanin levels induced by α-MSH)) is about 41.2 µM. Besides, the “Melanin content (%)” value by setting is: (TA 4 μM, α-MSH 24 hr + TA 24 hr, Table 24) 90.2 ± 6.1%; (TA 8 μM, Table 24) 83.2 ± 6.9%; (TA 16 μM, Table 24) 81.8 ± 4.5%; (TA 32 μM, Table 24) 67.7 ± 7.1%; (TA 60 μM (/L of IM01 and HQ), HQ vehicle DDW, Table 26) 51.7 ± 2.6%; (TA 64 μM, Table 24) 43.0 ± 4.3%. Besides, the “Melanin content (%)” value (TA 120 μM (/H of IM01 and HQ), HQ vehicle DDW, Table 26) turned out to be 37.7 ± 0.4%; the “Melanin content (%)” value (TA 128 μM, Table 24) is listed as 36.1 ± 2.9%; the “Melanin content (%)” value (TA 181 μM, Table 24) is recorded as 34.8 ±3.5%; the “Melanin content (%)” value (TA 256 μM, Table 24) was found to be 25.9 ± 1.5%. Moreover, the “Melanin inhibition activity compared with arbutin” value (Table 25 concentrations, FIG. 7C) is recorded as “much greater than arbutin”.
